Test results reported in publication PMC10590419, “Structural and mechanistic insights into the inhibition of respiratory syncytial virus polymerase by a non-nucleoside inhibitor” (Communications Biology, 2023).
Several values for one entry are separate records, joined by “and”; a condition that tells them apart may be missing. Identical values can stand only once.

Assays:
[1] = tested on: RSV B clinical isolates and laboratory strains; experiment: Inhibition of RSV-B clinical isolates and laboratory strains, RT-qPCR, HeLa; format: cell-based; settings: human respiratory syncytial virus, 6 strains, read-out: Median EC50
Experimental: Then, 100 µL of a HeLa cell suspension (5 × 10^4 cells/mL) in culture medium was added to each well. […] After 3 days of incubation, the supernatant was removed from wells. Plates were washed twice with ice-cold PBS (100 µL/well), and were then sealed and stored overnight at −80 °C. Next, 50 µL of lysis solution supplemented with DNAse was added to the plates and incubated for 5 min followed by the addition of 5 µL stop solution (Ambion Cell-to-CT bulk lysis reagent buffer). […] Roche) for cDNA synthesis. Reverse transcription was performed at 42 °C for 30 min, followed by denaturation at 95 °C for 5 min. […] The reaction consisted of a denaturation step (95 °C for 600 s), 45 cycles of denaturation (95 °C for 15 s) and annealing/elongation (60 °C for 60 s), and a step of cooling (40 °C for 10 s).

[2] = Cell viability of replicon cell line (CellTiter-Glo); format: cell-based; settings: hamster, APC-126 cells (BHK-derived, stable RSV A2 replicon); APC-126, CellTiter-Glo
Experimental: The RSV subgenomic replicon system was licensed from Apath (Apath, NY, USA)[49],[50]. The BHK-derived cell line (APC-126) containing the stable RSV A2 replicon was cultured in DMEM/Hams F-12 medium supplemented with 10% (v/v) FBS (Gibco), 1% (v/v) penicillin (10,000 units/mL) and streptomycin (10,000 µg/mL) solution (Gibco), 1% (v/v) MEM non-essential amino acids solution (Gibco), 5% (v/v) Tryptose Phosphate Broth solution (29.5 g/l) (Sigma-Aldrich) and 10 µg/ml of blasticidin solution (Invivogen). Cells were maintained at 37 °C in a humidified 5% CO2 atmosphere. 5000 cells were plated in 96-well clear plates (Corning) in 100 µl/well of medium. […] Cell viability (CC50 and CC90) was measured with a CellTiter-Glo cell proliferation assay (Promega, 100 µl/well of reagent). Results were expressed as EC50 and EC90 values as well as CC50 and CC90 values.

[3] = tested on: PIV-3 (recombinant JS-derived strain encoding GFP); format: cell-based, parainfluenza virus type 3
RSV MTase-CTD protein = RSV MTase-CTD protein (Human respiratory syncytial virus A, UniProt P28887); experiment: Methyltransferase filter-binding assay; format: biochemical; settings: for MTase activity, RNA+compound+RSV MTase-CTD, CPM: three technical replicates
Sequence of RSV MTase-CTD protein (P28887 1755-2165): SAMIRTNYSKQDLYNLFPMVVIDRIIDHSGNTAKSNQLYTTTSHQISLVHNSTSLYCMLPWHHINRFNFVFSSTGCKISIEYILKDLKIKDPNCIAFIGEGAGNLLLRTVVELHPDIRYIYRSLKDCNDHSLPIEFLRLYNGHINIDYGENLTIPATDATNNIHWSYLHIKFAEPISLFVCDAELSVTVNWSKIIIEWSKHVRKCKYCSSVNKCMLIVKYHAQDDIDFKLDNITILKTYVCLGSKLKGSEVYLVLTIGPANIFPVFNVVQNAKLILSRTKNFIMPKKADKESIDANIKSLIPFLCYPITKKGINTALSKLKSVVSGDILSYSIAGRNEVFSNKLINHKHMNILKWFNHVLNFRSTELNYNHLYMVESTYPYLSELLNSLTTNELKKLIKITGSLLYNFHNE

[4] = tested on: RSV minigenome transcription and RNA replication; experiment: RSV minigenome assay in BSR-T7 cells; format: cell-based, respiratory syncytial virus
Experimental: RSV transcription and RNA replication were analyzed using a replication-deficient minigenome, in which the minigenome template contained a single nucleotide substitution in the trailer region, limiting it to the antigenome step of RNA replication and uncoupling transcription from replication. Minigenome transcription and replication were reconstituted intracellularly. BSR-T7 cells, a T7 RNA polymerase expressing cell line, were cultured in a 6-well dish and transfected with T7-driven plasmids that expressed the minigenome template (200 ng/ well), and the RSV proteins N (400 ng/ well), P (200 ng/ well), L (100 ng/ well) and M2-1 (100 ng/ well). Transfections were performed using Lipofectamine (Thermofisher) according to the manufacturer’s directions. […] Input minigenome RNA, antigenome RNA, and mRNAs were detected by subjecting RNA to electrophoresis in 1.5% agarose-formaldehyde gels in MOPS buffer, followed by Northern blotting using ^32P labeled riboprobes specific to negative sense minigenome (to detect the input RNA) and to positive sense antigenome and mRNAs. The same RNA samples were also analyzed by primer extension using ^32P end-labeled primers corresponding in sequence to nucleotides 15–39 of the leader region (to detect RNA initiated from the +1U and +3 C sites on the promoter). […] Quantification was performed by phosphorimage analysis. […]

## COc1cc(C(=O)NC[C@](O)(c2cc(C(C)(C)O)c(F)c(-c3ccc(F)cc3)n2)C(F)(F)F)cc2cc(C)nnc12 [JNJ-8003]
[1]
  EC50: 0.0001 µM
[2]
  CC50 at 3 days: 11 µM
[3]
  inhibition (in words): negligible inhibition
RSV MTase-CTD protein; 50 uM
  MTase activity, RNA+compound+RSV MTase-CTD, CPM: 32508 CPM and 30594 CPM and 30169 CPM
RSV MTase-CTD protein; 200 uM
  MTase activity, RNA+compound+RSV MTase-CTD, CPM: 26082 CPM and 22767 CPM and 27924 CPM
RSV MTase-CTD protein; recombinant MTase-CTD fragment
  impact on MTase activity (in words): no impact
[4]
  antigenome RNA and mRNA (in words): dose dependent reduction
